Measured values: ChEMBL document CHEMBL1201862, “PubChem BioAssay data set” (2004)
Active and inactive are the calls of the source.

What was measured:
Cytochrome P450 2C19 = Cytochrome P450 2C19 (Homo sapiens, UniProt P33261); test: Cytochrome panel assay with activity outcomes. Panel member name: p450-cyp2c19 Compounds with AC50 equal or less than 10 uM are considered active; type: functional
Cytochrome P450 2C9 = Cytochrome P450 2C9 (Homo sapiens, UniProt P11712)
[1] = molecular target: FAD-linked sulfhydryl oxidase ALR (Homo sapiens, UniProt P55789); test: ALR-catalysed DTT oxidation blockers – biochemical, H2O2 detection, luminescence, cherry-pick, dose response (AID 493248)
Sequence of FAD-linked sulfhydryl oxidase ALR (P55789 whole entry): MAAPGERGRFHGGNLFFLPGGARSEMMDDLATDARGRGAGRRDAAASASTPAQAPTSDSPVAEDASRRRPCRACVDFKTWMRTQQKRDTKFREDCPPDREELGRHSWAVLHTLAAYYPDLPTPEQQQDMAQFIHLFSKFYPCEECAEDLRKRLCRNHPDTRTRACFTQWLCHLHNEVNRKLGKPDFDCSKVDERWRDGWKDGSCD

[2] = tested on: Streptococcus sp. 'group A'; test: Streptococcus pyogenes SK(-)GAS viability under kanamycin – luminescence, BacTiterGlo, confirmation, counter-screen for streptokinase expression inhibitor project, dose response (AID 1900); type: functional, organism-based
Streptokinase A = molecular target: T1, Streptokinase A (Streptococcus pyogenes serotype M1, UniProt P10520); test: viability-normalized secreted streptokinase activity reduction – plasminogen activation absorbance, OD405, dose response (AID 1914); type: functional, Streptococcus pyogenes M1 GAS;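 further: secreted streptokinase activity via plasminogen activation per viability signal from cell pellet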
T1 sequence (P10520 whole entry): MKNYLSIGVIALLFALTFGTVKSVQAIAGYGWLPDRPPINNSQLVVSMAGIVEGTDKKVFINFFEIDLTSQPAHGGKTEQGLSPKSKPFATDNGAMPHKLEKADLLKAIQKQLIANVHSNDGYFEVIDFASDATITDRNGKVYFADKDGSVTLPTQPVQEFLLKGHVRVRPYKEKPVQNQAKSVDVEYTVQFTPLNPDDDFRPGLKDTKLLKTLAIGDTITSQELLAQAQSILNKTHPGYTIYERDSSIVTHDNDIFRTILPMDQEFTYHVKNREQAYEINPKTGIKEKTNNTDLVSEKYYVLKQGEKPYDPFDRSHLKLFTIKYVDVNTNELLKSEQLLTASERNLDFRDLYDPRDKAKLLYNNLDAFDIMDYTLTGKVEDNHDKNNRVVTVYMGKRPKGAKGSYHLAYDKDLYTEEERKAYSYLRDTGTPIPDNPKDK

Streptococcus = test: GAS UMAA2166 growth inhibition – luminescence, BacTiterGlo, counter-screen for streptokinase expression inhibitor project, dose response (AID 1915); type: functional, organism-based;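 further: potency for reduction of bacterial viability or growth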
[3] = molecular target: T2, Corticotropin-releasing factor receptor 2/Corticotropin-releasing factor-binding protein (Homo sapiens, UniProt P24387+Q13324); test: Dose Response confirmation of uHTS hits for small molecule antagonists of the CRF-binding protein and CRF-R2 receptor complex.; type: functional; details: read-out: IC50_Mean
T2 sequence (Q13324 whole entry): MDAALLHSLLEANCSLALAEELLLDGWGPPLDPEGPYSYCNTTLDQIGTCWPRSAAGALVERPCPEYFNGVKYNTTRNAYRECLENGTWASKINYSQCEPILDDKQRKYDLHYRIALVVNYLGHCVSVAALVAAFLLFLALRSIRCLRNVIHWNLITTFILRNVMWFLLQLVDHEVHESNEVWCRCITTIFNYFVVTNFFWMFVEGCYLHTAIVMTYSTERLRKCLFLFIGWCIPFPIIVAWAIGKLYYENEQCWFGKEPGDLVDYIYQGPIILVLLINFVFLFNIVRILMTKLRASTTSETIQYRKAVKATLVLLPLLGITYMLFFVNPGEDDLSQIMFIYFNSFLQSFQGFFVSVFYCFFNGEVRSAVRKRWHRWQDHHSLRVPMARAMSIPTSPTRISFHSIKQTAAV
T2 sequence (P24387 whole entry): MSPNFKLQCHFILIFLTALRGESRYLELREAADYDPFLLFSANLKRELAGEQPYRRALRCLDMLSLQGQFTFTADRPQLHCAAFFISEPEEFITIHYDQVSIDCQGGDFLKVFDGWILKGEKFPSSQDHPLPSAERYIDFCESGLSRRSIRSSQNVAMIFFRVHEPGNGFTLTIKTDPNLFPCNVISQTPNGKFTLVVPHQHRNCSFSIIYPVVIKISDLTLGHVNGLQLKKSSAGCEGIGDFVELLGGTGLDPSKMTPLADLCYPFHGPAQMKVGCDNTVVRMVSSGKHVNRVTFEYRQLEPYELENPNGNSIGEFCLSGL

[4] = molecular target: T2, Corticotropin-releasing factor receptor 2/Corticotropin-releasing factor-binding protein; test: activators of CRF receptor 2 with binding protein – uHTS hits, confirmation (AID 602473); type: functional; details: read-out: EC50_Mean
Cytochrome P450 2D6 = Cytochrome P450 2D6 (Homo sapiens, UniProt P10635);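 further: CYP2D6 member of a cytochrome P450 panel assay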
Sequence of Cytochrome P450 2D6 (P10635 whole entry): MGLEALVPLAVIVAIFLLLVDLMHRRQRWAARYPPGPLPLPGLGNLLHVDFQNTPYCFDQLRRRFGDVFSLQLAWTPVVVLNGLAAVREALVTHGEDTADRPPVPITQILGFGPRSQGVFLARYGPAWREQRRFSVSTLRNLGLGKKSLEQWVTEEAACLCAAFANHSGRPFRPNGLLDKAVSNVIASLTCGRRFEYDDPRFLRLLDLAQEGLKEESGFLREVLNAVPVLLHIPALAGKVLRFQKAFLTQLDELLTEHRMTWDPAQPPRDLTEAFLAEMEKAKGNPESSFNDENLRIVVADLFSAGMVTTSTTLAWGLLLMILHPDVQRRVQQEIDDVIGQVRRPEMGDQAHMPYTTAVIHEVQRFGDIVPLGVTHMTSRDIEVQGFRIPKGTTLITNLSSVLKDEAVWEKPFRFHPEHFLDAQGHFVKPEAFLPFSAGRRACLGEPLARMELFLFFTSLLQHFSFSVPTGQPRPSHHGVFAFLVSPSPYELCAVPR

Cytochrome P450 1A2 = molecular target: T3, Cytochrome P450 1A2 (Homo sapiens, UniProt P05177);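 further: PubChem cytochrome P450 panel assay, CYP1A2 panel member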
T3 sequence (P05177 whole entry): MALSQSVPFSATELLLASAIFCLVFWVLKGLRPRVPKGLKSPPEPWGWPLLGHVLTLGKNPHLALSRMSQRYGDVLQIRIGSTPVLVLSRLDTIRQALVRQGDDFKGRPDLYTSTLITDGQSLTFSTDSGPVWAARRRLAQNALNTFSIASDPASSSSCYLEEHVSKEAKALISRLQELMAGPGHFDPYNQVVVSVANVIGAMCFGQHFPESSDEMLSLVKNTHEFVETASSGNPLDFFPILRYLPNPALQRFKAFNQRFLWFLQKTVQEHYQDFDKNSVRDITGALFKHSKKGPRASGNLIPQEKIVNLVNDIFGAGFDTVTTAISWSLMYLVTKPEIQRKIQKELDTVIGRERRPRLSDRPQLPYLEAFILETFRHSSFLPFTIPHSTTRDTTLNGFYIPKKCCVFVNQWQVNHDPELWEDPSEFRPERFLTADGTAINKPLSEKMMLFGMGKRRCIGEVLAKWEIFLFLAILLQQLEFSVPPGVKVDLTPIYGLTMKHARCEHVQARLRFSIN

Cytochrome P450 3A4 = Cytochrome P450 3A4 (Homo sapiens, UniProt P08684);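 further: CYP3A4 tested as one member of a cytochrome P450 panel screen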
Sequence of Cytochrome P450 3A4 (P08684 whole entry): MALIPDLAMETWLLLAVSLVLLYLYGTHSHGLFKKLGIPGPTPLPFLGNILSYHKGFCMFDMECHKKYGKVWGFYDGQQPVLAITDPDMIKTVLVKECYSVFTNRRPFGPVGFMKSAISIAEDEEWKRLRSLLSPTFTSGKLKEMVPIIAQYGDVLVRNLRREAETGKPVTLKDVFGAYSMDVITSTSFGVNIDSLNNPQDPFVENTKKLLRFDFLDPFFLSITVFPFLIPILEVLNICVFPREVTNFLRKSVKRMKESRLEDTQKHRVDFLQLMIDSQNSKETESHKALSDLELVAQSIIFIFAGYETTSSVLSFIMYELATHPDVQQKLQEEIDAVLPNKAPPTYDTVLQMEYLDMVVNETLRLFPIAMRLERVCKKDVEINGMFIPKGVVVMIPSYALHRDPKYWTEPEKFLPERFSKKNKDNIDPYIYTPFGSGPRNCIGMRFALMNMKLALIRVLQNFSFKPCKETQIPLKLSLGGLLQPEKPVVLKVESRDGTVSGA

Sequence of Cytochrome P450 2C9 (P11712 whole entry): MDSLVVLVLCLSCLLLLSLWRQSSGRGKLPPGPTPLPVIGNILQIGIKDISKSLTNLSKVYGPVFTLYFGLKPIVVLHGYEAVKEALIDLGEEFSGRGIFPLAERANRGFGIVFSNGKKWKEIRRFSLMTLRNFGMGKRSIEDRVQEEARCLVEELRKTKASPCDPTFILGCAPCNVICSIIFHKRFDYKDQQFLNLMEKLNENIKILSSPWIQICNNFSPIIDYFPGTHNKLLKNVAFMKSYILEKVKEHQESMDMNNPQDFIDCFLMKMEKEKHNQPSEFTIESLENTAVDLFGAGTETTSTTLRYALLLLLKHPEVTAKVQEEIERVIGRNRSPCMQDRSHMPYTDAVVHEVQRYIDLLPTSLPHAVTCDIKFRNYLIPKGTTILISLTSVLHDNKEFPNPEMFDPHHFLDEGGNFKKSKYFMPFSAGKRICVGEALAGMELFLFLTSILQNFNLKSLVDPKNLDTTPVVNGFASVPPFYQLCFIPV
Sequence of Cytochrome P450 2C19 (P33261 whole entry): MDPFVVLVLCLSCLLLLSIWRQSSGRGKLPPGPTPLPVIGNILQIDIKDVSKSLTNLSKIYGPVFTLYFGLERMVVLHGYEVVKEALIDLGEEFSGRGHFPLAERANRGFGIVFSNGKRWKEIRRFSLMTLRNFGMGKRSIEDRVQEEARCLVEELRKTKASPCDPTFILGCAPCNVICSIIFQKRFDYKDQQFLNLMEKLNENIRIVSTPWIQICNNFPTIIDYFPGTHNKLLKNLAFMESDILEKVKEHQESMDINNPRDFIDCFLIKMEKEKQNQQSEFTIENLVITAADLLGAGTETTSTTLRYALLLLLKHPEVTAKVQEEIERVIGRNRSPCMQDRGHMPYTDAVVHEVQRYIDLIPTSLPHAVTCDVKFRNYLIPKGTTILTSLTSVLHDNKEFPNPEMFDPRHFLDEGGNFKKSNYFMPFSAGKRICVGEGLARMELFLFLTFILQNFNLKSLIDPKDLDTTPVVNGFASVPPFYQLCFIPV

## CCN(CC)CCCNC(=O)C1CCC(=O)N(c2ccc(OC)cc2)C1c1ccc(F)cc1 (stereo unspecified)
Cytochrome P450 2C19
  AC50: inconclusive
Cytochrome P450 2C9
  AC50: 39.8 µM (inconclusive)

## CCN(CC)C(=O)c1csc(Nc2ccc(C)cc2)n1
[1]
  AC50: 5.19 µM (active)

## CC(C)(C)NC(=O)C(=O)NNC(=O)c1ccccc1
Cytochrome P450 2C19
  AC50: inconclusive
Cytochrome P450 2C9
  AC50: 1.78 µM (inconclusive)

## CC/C(=N\NC(=S)Nc1cc(C)ccc1C)c1ccc(OC(F)F)cc1
[2]
  EC50: 6.27 µM (active)
Streptokinase A
  EC50: > 150 µM (not active)
Streptococcus
  EC50: 11.8 µM (active)

## Sc1nnc(-c2ccccc2)c(-c2ccccc2)n1
[1]
  AC50: 0.567 µM (active)

## Oc1[nH]ncc1/C=N/c1ccc(Cl)cc1
[3]
  IC50: > 47.1 µM (inactive)
[4]
  EC50: > 53 µM (inactive)

## CN(C)c1ccc(/C=N/NC(=O)c2ccc3c(c2)OCO3)cc1
[1]
  AC50: 4.72 µM (active)

## COc1cc(NC(=O)c2ccccc2Cl)ccc1NC(=O)c1ccco1
Cytochrome P450 2D6
  AC50: 22.4 µM (inconclusive)
Cytochrome P450 1A2
  AC50: 17.8 µM (inconclusive)
Cytochrome P450 2C9
  AC50: 1.12 µM (inconclusive)

## CCOc1cc(CNc2ccc(OC)cc2)cc(Br)c1OCC(=O)NC(C)(C)C
Cytochrome P450 2C9
  AC50: 7.08 µM (inconclusive)

## COc1ccccc1CNC(=O)C1CC(=O)N(C2CCCC2)C1 (stereo unspecified)
Cytochrome P450 2C19; read-out: AC50
  AC50: 28.2 µM (inconclusive)
Cytochrome P450 3A4
  AC50: 22.4 µM (inconclusive)
Cytochrome P450 2C9
  AC50: 0.0224 µM (inconclusive)

## CC(C)C(=O)Nc1ccc(C(=O)NNC(=O)C(c2ccccc2)c2ccccc2)cc1
Cytochrome P450 3A4
  AC50: 4.47 µM (inconclusive)
Cytochrome P450 2C9
  AC50: 5.01 µM (inconclusive)

## Cc1cccc(C)c1OCC(=O)Nc1ccccc1N1CCCCC1
[2]
  EC50: 3.36 µM (active)
Streptokinase A
  EC50: 4.15 µM (active)
Streptococcus
  EC50: 12.5 µM (active)

## CC(C)CN(C(=O)COc1ccc(-c2nnco2)cc1)C1CCS(=O)(=O)C1 (stereo unspecified)
[2]
  EC50: > 150 µM (not active)
Streptokinase A
  EC50: > 150 µM (not active)
Streptococcus
  EC50: > 150 µM (not active)

## CN1c2ccc([N+](=O)[O-])cc2C(C)(C)C12C=Cc1cc(C(=O)O)ccc1O2 (stereo unspecified)
[1]
  AC50: 1.47 µM (active)

## CCOC(=O)c1sc(NC(=O)CSc2n[nH]c(-c3ccncc3)n2)c(C#N)c1C
[3]
  IC50: 16.3 µM (active)
[4]
  EC50: 8.57 µM (active)

## CCC1C(=O)N=C(SCC(=O)Nc2ccc(C(=O)OC)cc2)NC1=O (stereo unspecified)
Cytochrome P450 2C9
  AC50: 31.6 µM (inconclusive)

## Cc1ccc(Nc2nc(CSc3n[nH]c(N)n3)cs2)cc1
[1]
  AC50: < 0.005 µM (active)

## CC(C)c1ccc(CNc2cc(N3CCCC3)ccc2[N+](=O)[O-])cc1
Cytochrome P450 2C9
  AC50: 2.24 µM (inconclusive)

## Cc1ccc(CNC(=O)c2cc(-c3ccccc3C)n(CC3CC(c4cccc([N+](=O)[O-])c4)=NO3)n2)cc1 (stereo unspecified)
[3]
  IC50: > 47.1 µM (inactive)
[4]
  EC50: > 53 µM (inactive)

## CCCCOc1ccc(C(=O)N/C(=C\c2cccc([N+](=O)[O-])c2)C(=O)OCCC)cc1
Cytochrome P450 2C9
  AC50: 0.708 µM (inconclusive)

## COc1ccc(Cc2nnc(NC(=O)c3ccc(Cl)c([N+](=O)[O-])c3)s2)cc1
Cytochrome P450 3A4
  AC50: 0.631 µM (inconclusive)
Cytochrome P450 2C9
  AC50: 1.41 µM (inconclusive)

## COc1ccc(NC2CCCN(C(=O)c3cccc(C)n3)C2)cc1OC (stereo unspecified)
[3]
  IC50: > 47.1 µM (inactive)
[4]
  EC50: > 53 µM (inactive)

## CCCCC(NC(=O)CCc1c(C)c2cc3c4c(oc3c(C)c2oc1=O)CCCC4)C(=O)O (stereo unspecified)
[1]
  AC50: 7.78 µM (active)
